Two compounds from patent US20190062671A1, “PERFUME COMPOSITIONS” (Givaudan SA, priority 2016, published 2019) can be followed below.

SMILES strings stand for the structures. “Also recorded” adds a separate entry of the source.

Data set [1] concerns Nrf2-dependent luciferase (ARE-element of the gene AKR1C2) in KeratinoSens cell line. Nature of the data set: KeratinoSens assay, luciferase gene induction (OECD TG 442d). To be noted: single chemicals; for Rating in the KeratinoSens assay (skin sensitization): threshold 1.5-fold induction. On the procedure:
The level of skin sensitization can reliably and quantitatively be measured experimentally by the KeratinoSens® method, which measures the induction of Nrf2-dependent luciferase in a skin cell line.
(§1) Compounds were tested using the commercial KeratinoSens® assay for skin sensitization. The KeratinoSens® test compares the potential skin sensitization risk of chemicals. […] KeratinoSens® cells were grown for 24 h in 96-well plates. The medium was then replaced with medium containing the test chemical and the solvent dimethylsulfoxide (DMSO) at a final level of 1% (v/v). Each compound was tested at 12 binary dilutions in the range from 0.98 to 2000 μM. Cells were incubated for 48 h with the test agents, and then luciferase activity and cytotoxicity were determined. This full procedure was repeated three times for each chemical. For each chemical in each repetition and at each concentration, the gene induction compared to DMSO controls and the wells with statistically significant induction over the threshold of 1.5 (i.e. 50% enhanced gene activity) were determined. Furthermore, the maximal fold-induction (Imax) and the EC1.5 value (concentration in μM for induction above the threshold) were calculated.
(§2) All compositions were tested in the concentration range from 0.2-400 ppm (parts per million in weights per volume).

For the next data set, the system named is KeratinoSens cells. In words: Cytotoxicity / cellular viability in the KeratinoSens assay. The data set is classed as cell-based. To be noted: single chemicals, 48 h. On the procedure:
as §1, §2

Data set [2] has as its target test peptide Cor1C-420 (Ac-NKKCDLF) (Homo sapiens, UniProt Q9ULV4, I423F). Nature of the data set: Modified direct peptide reactivity assay with LC-MS detection of peptide adducts. To be noted: for Peptide reactivity: quantification, % of parent peptide modified: pH 7.5. On the procedure:
Alternatively, the sensitization potential can be quantified by measuring the reactivity of test chemicals with peptides.
It is based on the fact that allergenic chemicals must react with a peptide/protein in order to be immunogenic.
The samples were incubated for 24 h at 37° C. and analysed by LC-MS analysis on a VELOS PRO Mass spectrometer (Thermo […], San Jose, Calif., U.S.A.) operated in the ESI(+) mode.
Mass spectra were recorded from 200-2000 amu. A ZORBAX Eclipse XDB-C18 column, 2.1 mm ID, 150 mm, 5-Micron (Agilent Technologies) was used. The mobile phase consisted of H2O (A) and methanol (B) each containing 0.1% formic acid (v/v). The solvent flow was 250 μl/min and the following gradient (ratio A:B) was used: 0 min, 95:5; 2 min, 40:60; 10 min, 2:98; 12 min, 2:98. The integration was performed with Xcalibur Quan Browser™.
In order to detect formation of modified peptides, the specific ion trace for a new adduct with the mass of the test chemical added to the test peptide is extracted, and the peak of the peptide-adduct is integrated. Peptide adduct formation is a particular sensitive endpoint to determine reactive, and thus allergenic nature of compounds.

[3] abbreviates: 1 mM test chemical, 0.1 mM peptide, 24 h at 37° C.

As for `CC(C)=CCC(C)/C=C(\C)C=O` (centres unmarked) [2,4,7-trimethyl-2,6,-octadienal], the “Imax (fold maximal gene induction)” value in data set [1] (0.98 to 2000 μM, 48 h) is listed as 1.40 fold. For the same compound, the “Concentration for 1.5-fold gene induction (EC 1.5 in μM)” value in data set [1] (48 h, n.i. = no induction above threshold of 1.5 (negative rating)) is recorded as “n.i”. Further, the “Rating in the KeratinoSens assay (skin sensitization)” value in data set [1] was “non-sensitizing; also recorded: does not surpass the threshold for a positive rating up to the top dose”. Further, the “Concentration for 50% Cytotoxicity” value in the data set on KeratinoSens cells turned out to be 317.8 µM. The “Peptide reactivity: adduct observation” value was “only traces were formed” in data set [2] (setting [3]) and “Extremely low activity,” in data set [2] (1 mM test chemical, 0.1 mM peptide, 24 h at 37° C., listed as II). The “Peptide reactivity: quantification, % of parent peptide modified” value in data set [2] (setting [3]) is “observed, 0.3% of parent”. Also, the “Peptide reactivity / adduct amount, fold lower as compared to Citral” value in data set [2] (relative to Citral) is given as 27 fold.

Regarding `CC(C)=CCCC(C)=CC=O` [Citral, 3,7-dimethyl-2,6-octadienal, reference compound], the “Rating in the KeratinoSens assay (skin sensitization)” value in data set [1] is “highly active”. In addition, the “Concentration for 50% Cytotoxicity” value in the data set on KeratinoSens cells was 95.5 µM. Also, the “Peptide reactivity: quantification, % of parent peptide modified” value in data set [2] (24 h, 1 mM) is given as 8.1% of parent.
